Assay results published in US5824668A, “Formulation for administration of steroid compounds” (priority 1996, dated 1998).
Entries after “also recorded” stand apart in the source; their conditions may differ.

Columns and labels:
[1] = Optical density of ET and ED dissolved in hydroxypropyl-β-cyclodextrin solutions; format: physicochemical
Experimental: The optical density (OD) of the ET and ED dissolved in hydroxypropyl-β-cyclodextrin solutions was determined at 400 NM against a blank control containing water and set at an OD of 0.0.

genetically obese mice = settings: cited from earlier work; for anti-obesity effect / development of obesity / weight reduction after obesity: supplied in the diet, diabetic genetically obese mice
[2] = test system: genetically obese and diabetic mice; settings: cited from earlier work; for effectiveness relative to DHEA in preventing development of diabetes: C57BL/KsJ-db/db diabetic mice; for blood sugar / effect on the pancreas (granulation of islet cells) / plasma insulin concentrations: Coleman 1984
[3] = cited from earlier work; for pyrogenic reaction: intramuscular injection
aplastic anemia patients = settings: cited from earlier work; for patients with hematologic responses lasting longer than six months: of 43 patients treated with either α- and/or β ET, im
[4] = cited from earlier work; for conversion in serum: normal and obese subjects, unpublished data; for oxidation at C-3 position to form etiocholandione: oral or parenteral; for recovery in the urine: parenteral routes
Prader-Willi Syndrome = settings: cited from earlier work
[5] = cited from earlier work; for influence on stabilization of mitomycin-C: acidic aqueous media, pH ranges studied
[6] = Dissolution of 5β steroid in water or in hydroxypropyl-β-cyclodextrin solution (Examples I-VII); format: physicochemical
Experimental: 12 milligrams (mg) of Etiocholandione (Steraloids, Inc. New Hampshire) was stirred and shaken with 0.5 ml of water in a test tube.
A 50% solution of hydroxypropyl-β-cyclodextrin was prepared as follows. 5 grams of pyrogen free hydroxypropyl-β-cyclodextrin (sold under the trade name Encapsin, Amaizo, Inc., Hammond, Ind., USA) was weighed on an analytical scale and placed in a graduated cylinder. Water was added with shaking until the volume reached 10 ml.
0.5 ml of the 50% solution of hydroxypropyl-β-cyclodextrin was added to the 0.5 ml of water containing 12 mg of Etiocholandione with additional shaking.
The previous experiment was repeated using a 50% solution of hydroxypropyl-β-cyclodextrin prepared as in Example 1. 50 mg of Etiocholandione was weighed and placed in a test tube. 2 ml of the 50% solution of hydroxypropyl-β-cyclodextrin was added to the test tube with shaking.
4 grams of hydroxypropyl-β-cyclodextrin was dissolved in 7 ml of distilled water to a total volume of 10 ml. Each ml of stock solution contained 0.4 g of solution hydroxypropyl-β-cyclodextrin. 20 mg of 3-β-hydroxy androstan-17-one (β-etiocholanolone) was shaken with 1 ml of the freshly prepared stock solution.
The same experiment as in example III was performed except that 40 mg of β-etiocholanolone was added to the stock solution of hydroxypropyl-β-cyclodextrin.
The same experiment as in example III was performed except that 20 mg of Etiocholandione was added to the stock solution of hydroxypropyl-β-cyclodextrin.
The same experiment as in example V was performed except that 40 mg of Etiocholandione was added to the stock solution of hydroxypropyl-β-cyclodextrin.
The same experiment as in Example V was performed except 80 mg or 250 mg ED was added to the stock solution.

obese subjects = settings: oral, cited from earlier work
[7] = test system: severely diabetic mammals; settings: oral; cited from earlier work
rats and mice = settings: cited from earlier work
female patients = settings: cited from earlier work
auto-immune diseases = settings: cited from earlier work
[8] = dissolved solution in hydroxypropyl-β-cyclodextrin, 400 NM, against water blank

## C[C@]12CC[C@H](O)C[C@H]1CC[C@@H]1[C@@H]2CC[C@]2(C)C(=O)CC[C@@H]12 [β ET, 3-β-hydroxy androstan-17-one]
[1]; [8]
  optical density (OD): 0.12
Genetically obese mice
  anti-obesity effect: anti-obesity properties
  development of obesity: can prevent and arrest the development of obesity
  weight reduction after obesity: facilitate weight reduction after obesity
[2]
  effectiveness relative to DHEA in preventing development of diabetes: four times more effective than DHEA
  blood sugar: reduce blood sugar
  effect on the pancreas (granulation of islet cells): protective effect on the pancreas
  plasma insulin concentrations: increased plasma insulin concentrations
[3]
  pyrogenic reaction: little pyrogenic effect
Aplastic anemia patients
  patients with hematologic responses lasting longer than six months: 17
Aplastic anemia patients; treated with β-ET
  hematologic recovery in non-responders to α ET: three patients who did not respond to α ET had a hematologic recovery
[4]
  conversion in serum: quickly converted almost exclusively to α ET
  oxidation at C-3 position to form etiocholandione: rapidly oxidized at the C-3 position
  recovery in the urine: almost exclusively α ET conjugates

## C[C@]12CC[C@@H](O)C[C@H]1CC[C@@H]1[C@@H]2CC[C@]2(C)C(=O)CC[C@@H]12 [etiocholanolone]
Prader-Willi Syndrome
  weight change in treated individuals: either weight loss or a decrease in the rate of weight gain

## OC[C@H]1O[C@@H]2O[C@H]3[C@H](O)[C@@H](O)[C@@H](O[C@H]4[C@H](O)[C@@H](O)[C@@H](O[C@H]5[C@H](O)[C@@H](O)[C@@H](O[C@H]6[C@H](O)[C@@H](O)[C@@H](O[C@H]7[C@H](O)[C@@H](O)[C@@H](O[C@H]8[C@H](O)[C@@H](O)[C@@H](O[C@H]1[C@H](O)[C@H]2O)O[C@@H]8CO)O[C@@H]7CO)O[C@@H]6CO)O[C@@H]5CO)O[C@@H]4CO)O[C@@H]3CO [β-cyclodextrin]
[5]
  influence on stabilization of mitomycin-C: no influence on stabilization of mitomycin-C pH degradation

## COC[C@H]1O[C@@H]2O[C@H]3[C@H](O)[C@@H](OC)[C@@H](O[C@H]4[C@H](O)[C@@H](OC)[C@@H](O[C@H]5[C@H](O)[C@@H](OC)[C@@H](O[C@H]6[C@H](O)[C@@H](OC)[C@@H](O[C@H]7[C@H](O)[C@@H](OC)[C@@H](O[C@H]8[C@H](O)[C@@H](OC)[C@@H](O[C@H]1[C@H](O)[C@H]2OC)O[C@@H]8COC)O[C@@H]7COC)O[C@@H]6COC)O[C@@H]5COC)O[C@@H]4COC)O[C@@H]3COC [heptakis-(2,6,-di-O-methyl)-β- cyclodextrin]
[5]
  influence on stabilization of mitomycin-C: no influence on stabilization of mitomycin-C pH degradation

## C[C@]12CC[C@H](O)C[C@@H]1CC[C@@H]1[C@@H]2CC[C@]2(C)C(=O)CC[C@@H]12 [epiandrosterone, reference compound]
[2]
  effectiveness relative to DHEA in preventing development of diabetes: but not androsterone or epiandrosterone

## C[C@]12CC[C@@H](O)C[C@@H]1CC[C@@H]1[C@@H]2CC[C@]2(C)C(=O)CC[C@@H]12 [androsterone, reference compound]
[2]
  effectiveness relative to DHEA in preventing development of diabetes: but not androsterone or epiandrosterone

## C[C@]12CC[C@@H](O)C[C@H]1CC[C@@H]1[C@@H]2CC[C@]2(C)C(=O)CC[C@@H]12 [α ET]
Genetically obese mice
  anti-obesity effect: anti-obesity properties
  development of obesity: can prevent and arrest the development of obesity
  weight reduction after obesity: facilitate weight reduction after obesity
[2]
  effectiveness relative to DHEA in preventing development of diabetes: four times more effective than DHEA
  blood sugar: reduce blood sugar
  effect on the pancreas (granulation of islet cells): protective effect on the pancreas
  plasma insulin concentrations: increased plasma insulin concentrations
[3]
  pyrogenic reaction: acute pyrogenic reactions; also recorded: pyrogenic reaction and notable patient discomfort
Aplastic anemia patients
  patients with hematologic responses lasting longer than six months: 17
[4]; IV, human subjects, isotopic ratio studies
  oxidation at C3 position: rapidly oxidized and re-reduced
[4]; normal individuals, endogenous
  urinary excretion: 3-5 mg per day
[4]
  oxidation at C-3 position to form etiocholandione: rapidly oxidized at the C-3 position
  recovery in the urine: almost exclusively α ET conjugates

## C[C@]12CCC(=O)C[C@H]1CC[C@@H]1[C@@H]2CC[C@]2(C)C(=O)CC[C@@H]12 [ED]
[6]; 12 mg in 0.5 ml of water, after 5 minutes
  dissolution in water: Appreciable quantities of compound remained out of solution
[6]; 12 mg in 1 ml of 25% hydroxypropyl-β-cyclodextrin
  appearance of solution: A clear solution was obtained
[6]; 20 mg in 1 ml stock solution (0.4 g/ml hydroxypropyl-β-cyclodextrin), room temperature, occasional shaking
  time to complete dissolution: ≤ 6 h
[6]; 40 mg in 1 ml stock solution (0.4 g/ml hydroxypropyl-β-cyclodextrin)
  time to complete dissolution: ≤ 24 h
[6]; 50 mg in 2 ml of 50% hydroxypropyl-β-cyclodextrin
  appearance of solution: clear solution with no accumulation of crystals
[6]; 50 mg in 2 ml of 50% hydroxypropyl-β-cyclodextrin, with shaking
  time to dissolution: Within one minute
[6]; 80 mg added to stock solution (0.4 g/ml hydroxypropyl-β-cyclodextrin)
  complete dissolution: In neither case did the ED completely dissolve
[6]; 250 mg added to stock solution (0.4 g/ml hydroxypropyl-β-cyclodextrin)
  complete dissolution: In neither case did the ED completely dissolve
[1]; [8]
  optical density (OD): 0.12
[1]; hydroxypropyl-β-cyclodextrin solution containing 80 mg of ED, 499 NM
  optical density (OD): 1.2
Obese subjects; 10-week period
  mean fat loss of the initial body fat content: about 5%
Obese subjects; 14 subjects
  weight and body fat loss vs placebo: lost significantly more weight and body fat
Obese subjects; four grams per day
  fat loss: significant fat loss
  mean weight loss: 2.8±5.5 kilograms
  mean weight loss normalized to body fat: 0.5±0.91 kilograms per week per 100 kilograms of body fat
Obese subjects
  subjective or objective side effects: no significant subjective or objective side effects
[4]; in vivo
  serum levels of α ET after administering ED: high levels of α ET can be achieved in the serum
[4]
  conversion in serum: quickly converted almost exclusively to α ET

## C[C@]12CC[C@H](O)CC1=CC[C@@H]1[C@@H]2CC[C@]2(C)C(=O)CC[C@@H]12 [DHEA, 3-β-hydroxy-androst-5-en-17-one]
Genetically obese mice; genetically obese mice, variety of routes
  rate of weight gain: decreased the rate of weight gain
[2]; genetically obese and diabetic mice
  development of diabetes: markedly reduced the development of diabetes
[7]
  glucose tolerance: improved glucose tolerance
  hyperglycemia: restored hyperglycemia to normal levels
Rats and mice
  control of diabetes and obesity: effective in controlling diabetes and obesity
[4]; humans
  metabolism: metabolized to testosterone (17-β-hydroxy-androst-4-en-3-one) and estradiol
Female patients
  acne: severe acne

## OC[C@H]1O[C@@H]2O[C@H]3[C@H](O)[C@@H](O)[C@@H](O[C@H]4[C@H](O)[C@@H](O)[C@@H](O[C@H]5[C@H](O)[C@@H](O)[C@@H](O[C@H]6[C@H](O)[C@@H](O)[C@@H](O[C@H]7[C@H](O)[C@@H](O)[C@@H](O[C@H]8[C@H](O)[C@@H](O)[C@@H](O[C@H]9[C@H](O)[C@@H](O)[C@@H](O[C@H]1[C@H](O)[C@H]2O)O[C@@H]9CO)O[C@@H]8CO)O[C@@H]7CO)O[C@@H]6CO)O[C@@H]5CO)O[C@@H]4CO)O[C@@H]3CO [γ-cyclodextrin]
[5]; acidic media at pH above 1
  stabilizing effect on mitomycin: measurable stabilizing effect on mitomycin

## OC[C@H]1O[C@@H]2O[C@H]3[C@H](O)[C@@H](O)[C@@H](O[C@H]4[C@H](O)[C@@H](O)[C@@H](O[C@H]5[C@H](O)[C@@H](O)[C@@H](O[C@H]6[C@H](O)[C@@H](O)[C@@H](O[C@H]7[C@H](O)[C@@H](O)[C@@H](O[C@H]1[C@H](O)[C@H]2O)O[C@@H]7CO)O[C@@H]6CO)O[C@@H]5CO)O[C@@H]4CO)O[C@@H]3CO [α-cyclodextrin]
[5]
  influence on stabilization of mitomycin-C: no influence on stabilization of mitomycin-C pH degradation

## C[C@]12C=CC(=O)C=C1CC[C@@H]1[C@@H]2C(=O)C[C@@]2(C)[C@H]1CC[C@]2(O)C(=O)CO [prednisone]
auto-immune diseases; in vivo
  side effects: fluid retention and dramatic loss of bone or osteoporosis
auto-immune diseases; ulcerative colitis, Chrone's disease, rheumatoid arthritis
  symptoms of auto-immune diseases: effective in reducing the symptoms

## C[C@]12C=CC(=O)C=C1CC[C@@H]1[C@@H]2[C@@H](O)C[C@@]2(C)[C@H]1CC[C@]2(O)C(=O)CO [prednisolone, reference compound]
[3]; minimal doses of 10 mg, with β-ET
  suppression of local irritation: sufficient to suppress any local irritation

## dimethyl-β- cyclodextrin
[5]
  influence on stabilization of mitomycin-C: no influence on stabilization of mitomycin-C pH degradation
